“Also recorded” adds a separate entry of the source. Where a name gives a salt, the structure may show the parent alone.
Experiments:
[1] = system: SARS-CoV-2_S (D614G)-pseudotyped lentivirus entry into ACE2-overexpressing 293T cells; type: cell-based
[2] = system: SARS-CoV-2_S (D614G)-pseudotyped lentivirus entry into ACE2-overexpressing Capan2 cells; type: cell-based

| SMILES | inhibiting effect on entry of the pseudovirus (EGFP/mCherry signal ratio) [1] | inhibiting effect on entry of the pseudovirus (EGFP/mCherry signal ratio) [2] | inhibiting effect on entry of the pseudovirus [2] |
| --- | --- | --- | --- |
| N=C(N)c1ccc2cc(OC(=O)c3ccc(N=C(N)N)cc3)ccc2c1 [Nafamostat mesylate, reference compound] | significant inhibiting effects | exhibited an inhibiting effect; also recorded: block the pseudoviruses from entering |  |
| COc1ccc2c3ccnc4ccc(=O)n(c2c1)c43 [TS-984, 9-Methoxycanthin-6-one] | significant inhibiting effects; also recorded: greatly reduce the EGFP/mCherry signal ratio | strongest and was dose-dependent; also recorded: greatly reduce the EGFP/mCherry signal ratio; also recorded: effectively block the entry of pseudovirus into Capan2 cells with ACE2 overexpression in a dose-dependent manner |  |
| O=C1c2ccccc2C(=O)c2ccccc21 [TS-1276, anthraquinone] | significant inhibiting effects | did not present any significant inhibiting effects |  |
| O=C(OC[C@H]1O[C@@H](OC(=O)c2cc(O)c(O)c(OC(=O)c3cc(O)c(O)c(O)c3)c2)[C@H](OC(=O)c2cc(O)c(O)c(OC(=O)c3cc(O)c(O)c(O)c3)c2)[C@@H](OC(=O)c2cc(O)c(O)c(OC(=O)c3cc(O)c(O)c(O)c3)c2)[C@@H]1OC(=O)c1cc(O)c(O)c(OC(=O)c2cc(O)c(O)c(O)c2)c1)c1cc(O)c(O)c(OC(=O)c2cc(O)c(O)c(O)c2)c1 [tannic acid, reference compound] |  |  | only a mild inhibiting effect; also recorded: did not observe any significant inhibiting effect |

— publication PMC9281089 (Journal of Translational Medicine, 2022)
